The record followed here is publication PMC9728226, “Suppressive Effects of a Truncated Inhibitor K562 Protein-Derived Peptide on Two Proinflammatory Cytokines, IL-17 and TNF-α” (Journal of Microbiology and Biotechnology, 2020).

Peptide text beside a SMILES is read from it.

Test [1] has as its system Th17 cell differentiation (mouse IL-17). In kind it is cell-based. The settings on record: 1.0 μg/ml; second experiment (Fig. 3B), control 0.1% DMSO; IL-17 ELISA; mean of n = 3. The protocol:
Naïve CD4^+ T cells were isolated from the spleen of wild-type Balb/c mice via magnetic-activated cell sorting using a CD4^+ T Cell Isolation Kit (Miltenyi Biotec, Germany), in accordance with the manufacturer’s instructions. The RPMI medium for stimulating Th17 cell differentiation included 10 μg/ml anti-CD3 (eBioscience, USA), 1.5 μg/ml anti-CD28 (eBioscience), 5 ng/ml transforming growth factor-β (R&D Systems, USA), and 20 ng/ml IL-6 (BioLegend, USA). After cells had been cultured in this conditioned medium for 2 days at 37°C, 100 μl of the supernatant was analyzed for mouse IL-17 (mIL-17) using an IL-17-specific enzyme-linked immunosorbent assay (ELISA). All tests were repeated three times independently, and the means and standard deviations (SDs) from three tests were calculated.
A general note: ELISA stands for enzyme-linked immunosorbent assay.

Test [2] relates to mTNF-α secretion by J774A.1 cells. The test can be described thus: mTNF-α secretion by LPS-stimulated J774A.1 cells, ELISA. The format is cell-based, mouse. The following applies: 24 h, mean of n = 3; for inhibition of mTNF-α: J774A.1 cells, 100 ng/ml LPS, Fig. 3D. The protocol: The murine monocyte/macrophage cell line J774A.1 was obtained from the American Type Culture Collection (ATCC, USA), grown in Dulbecco’s modified Eagle’s medium (Gibco Laboratories, USA), and cultured at 37°C in humidified 5% CO2. The culture medium was supplemented with 10% fetal bovine serum and 2 mM glutamine. The cells were seeded into 24-well culture plates at a density of 1 × 10^5/ml and allowed to adhere overnight. Thereafter, the medium was replaced with fresh medium. The cells were pre-treated with DMS or a peptide (P1, P2, P3, P4, or P4S) and then stimulated with 100 ng/ml of lipopolysaccharide (LPS). Supernatants were collected after 24 h and stored at -20°C. Concentrations of mouse TNF-α (mTNF-α) were measured using ELISA (Mouse TNF-α DuoSet ELISA Kit; R&D Systems Europe, UK) according to the manufacturer’s instructions. All tests were repeated three times independently, and the results are expressed as means ± SDs.

On to `CSCC[C@H](NC(=O)[C@H](CC(=O)O)NC(=O)[C@H](CC(=O)O)NC(=O)[C@H](CCSC)NC(=O)[C@@H](NC(=O)[C@H](C)NC(=O)[C@@H]1CCCN1C(=O)[C@@H](N)Cc1ccc(O)cc1)[C@@H](C)O)C(=O)N[C@@H](C)C(=O)N[C@H](C(=O)N[C@@H](CC(=O)O)C(=O)N[C@@H](CO)C(=O)N[C@@H](CC(=O)O)C(=O)N[C@@H](CCC(=O)O)C(=O)N[C@@H](CCC(=O)O)C(=O)N[C@H](C(=O)N[C@@H](CC(=O)O)C(=O)N[C@@H](Cc1ccc(O)cc1)C(=O)O)C(C)C)C(C)C` [P4] (H-YPATMDDMAVDSDEEVDY-OH; N-terminus and C-terminus assumed), for which the “inhibition of mIL-17” value in test [1] was found to be 42.4%. Further, in test [2] (1 μg/ml, J774A.1 cells pre-treated, then 100 ng/ml LPS, vs LPS-only group, Fig. 3C), the “inhibition rate against mTNF-α” value stood at 50.2%.
Regarding “YPATMDDMA [P4S, 9-mer human tIK-derived peptide, fragment homolog of P4]”, in test [1], the “inhibition of mIL-17” value was 43.8%. Further, the “inhibition of mTNF-α” value in test [2] (0.1 μg/ml) was 45.5%; in test [2] (1.0 μg/ml) it was 50.7%.
